Results published in patent US12697326B2, “Methods of treating hepatic encephalopathy” (SALIX PHARMACEUTICALS, INC., priority 2008, dated 2026).

Columns and labels:
Format in all cases: in vivo, human
[1] = system: all-cause hospitalization in subjects with HE; experiment: All-cause hospitalization, first study
[2] = system: asterixis grade in subjects with HE; experiment: Level of change from baseline in asterixis grade by treatment group, first study; details: 550 mg BID, Baseline to EOT
Experimental: Asterixis (flapping tremor) was determined with the subject holding both arms and forearms extended with wrists dorsiflexed and fingers open for ≥30 seconds. Asterixis was measured on a continuum of 5 grades, e.g., grades 0 and 4=no abnormal movement vs. almost continuous flapping motions, respectively as shown below: • Grade 0=No tremors; • Grade 1=Rare flapping motions; • Grade 2=Occasional, irregular flaps; • Grade 3=Frequent flaps; and • Grade 4=Almost continuous flapping motions.

[3] = system: HE-related hospitalization in subjects with hepatic encephalopathy (HE); experiment: Time to first HE-related hospitalization, first study; details: for Cummulative number of events / Number of events / Probability of no HE-related hospitalization: ITT
Source text: Time to first HE-related hospitalization was computed as the number of days from the first dose of rifaximin to the first hospitalization for an HE related event. The analysis of time to first HE-related hospitalization was based on the comparison of time to hospitalization between rifaximin and placebo.
FIG. 9 illustrates time to first HE-related hospitalization (e.g., hospitalization directly resulting from HE or hospitalization caused by HE) by treatment group in the ITT population in the first study. Table 19 presents estimates of the proportions of subjects who had their first HE-related hospitalization over the course of the Treatment Period and results of statistical analyses. Subjects who discontinued prior to hospitalization due to HE and prior to completion of the 6-month treatment period were censored at the time of discontinuation. […] This hazard ratio represents a 50% reduction, when compared with placebo, in the risk of hospitalization due to HE during the 6-month treatment period.
Note for FIG. 9, the survival distribution estimate on y-axis represents the proportion of subjects without HE-related hospitalization. Dashed line represents rifaximin group and solid line represents placebo group. Open circles and open triangles represent censored subjects. Subjects who discontinued prior to hospitalization due to HE and prior to completion of the 6-month treatment period were censored at the time of discontinuation. Hepatic encephalopathy-related hospitalization was recorded on the HE-related hospitalization CRF.

[4] = system: subjects with HE; experiment: Treatment-emergent adverse events, second study
Source text: At the time of this interim analysis, TEAEs were reported in 230 subjects (86.5%). The most common TEAEs (e.g., in ≥10% of total subjects) experienced by subjects were the following: peripheral edema (15.8%); urinary tract infection and nausea (12.8% each); and abdominal pain and ascites (10.5% each).
Treatment-emergent SAEs were experienced by 47.4% of subjects.

[5] = system: HE-caused hospitalization in subjects with HE; experiment: HE-caused hospitalization, first study
Source text: FIG. 5 illustrates time to first HE-caused hospitalizations by treatment group in the first study. […] Note for FIG. 10, the survival distribution estimate on y-axis represents the proportion of subjects without HE-caused hospitalizations. Dashed line represents rifaximin group and solid line represents placebo group. Open circles and open triangles represent censored subjects. Subjects who discontinued prior to hospitalization were censored at the time of discontinuation.

[6] = system: subjects with HE; experiment: Treatment-emergent adverse events, first study; details: rifaximin group
Source text: A total of 79.9% of subjects (239 of 299) experienced TEAEs during the course of the study.

[7] = first HE-related hospitalization, Table 4, 550 mg BID, N = 140, Days >=168
[8] = first HE-related hospitalization, Table 4; 550 mg BID; N = 140; Days [0-28)
[9] = first HE-related hospitalization, Table 4, 550 mg BID, N = 140, Days [28-56]
[10] = first HE-related hospitalization, Table 4; 550 mg BID; N = 140; Days [56-84)
[11] = first HE-related hospitalization, Table 4; 550 mg BID; N = 140; Days [84-140)
[12] = first HE-related hospitalization, Table 4; 550 mg BID; N = 140; Days [140-168)
[13] = first HE-related hospitalization, Table 17, 550 mg BID, N = 140, Days >=168
[14] = first HE-related hospitalization, Table 17; 550 mg BID; N = 140; Days [0-28)
[15] = first HE-related hospitalization, Table 17; 550 mg BID; N = 140; Days [28-56)
[16] = first HE-related hospitalization, Table 17; 550 mg BID; N = 140; Days [56-84)
[17] = first HE-related hospitalization, Table 17; 550 mg BID; N = 140; Days [84-140)
[18] = first HE-related hospitalization, Table 17; 550 mg BID; N = 140; Days [140-168)
[19] = first study, first HE-related hospitalization, N = 140, treatment interval 0 to <28 days
[20] = first study, first HE-related hospitalization, N = 140, treatment interval 28 to <56 days
[21] = first study, first HE-related hospitalization, N = 140, treatment interval 56 to <84 days
[22] = first study, first HE-related hospitalization, N = 140, treatment interval 84 to <140 days
[23] = first study, first HE-related hospitalization, N = 140, treatment interval 140 to <168 days
[24] = first study, first HE-related hospitalization, N = 140, treatment interval ≥168 days

SMILES: CO[C@H]1/C=C/O[C@@]2(C)Oc3c(C)c(O)c4c(O)c(c5c(nc6cc(C)ccn65)c4c3C2=O)NC(=O)/C(C)=C\C=C\[C@H](C)[C@H](O)[C@@H](C)[C@@H](O)[C@@H](C)[C@H](OC(C)=O)[C@@H]1C [Rifaximin]
- reduction in risk of all-cause hospitalization compared with placebo [1]: 30%
- subjects with all-cause hospitalization (of 140) ([1]; rifaximin group): 46
- all-cause hospitalization rate ([1]; rifaximin group, normalized for exposure): 0.90 events/PEY
- Change from baseline in asterixis grade, Max [2]: 2
- Change from baseline in asterixis grade, Mean [2]: 0.0
- Change from baseline in asterixis grade, Median [2]: 0.0
- Change from baseline in asterixis grade, Min [2]: −2
- Number of subjects with change from baseline in asterixis grade of 0 ([2]; n = 139): 108
- Number of subjects with change from baseline in asterixis grade of 1 ([2]; n = 139): 10
- Number of subjects with change from baseline in asterixis grade of 2 ([2]; n = 139): 2
- Number of subjects with change from baseline in asterixis grade of 3 ([2]; n = 139): 0
- Number of subjects with change from baseline in asterixis grade of 4 ([2]; n = 139): 0
- Number of subjects with change from baseline in asterixis grade of −1 ([2]; n = 139): 18
- Number of subjects with change from baseline in asterixis grade of −2 ([2]; n = 139): 1
- Percent of subjects with change from baseline in asterixis grade of 0 ([2]; n = 139): 77.7%
- Percent of subjects with change from baseline in asterixis grade of 1 ([2]; n = 139): 7.2%
- Percent of subjects with change from baseline in asterixis grade of 2 ([2]; n = 139): 1.4%
- Percent of subjects with change from baseline in asterixis grade of −1 ([2]; n = 139): 12.9%
- Percent of subjects with change from baseline in asterixis grade of −2 ([2]; n = 139): 0.7%
- Cumulative Occurrences of Events [3, 7]: 23
- Occurrences of Events [3, 7]: 0
- Survival [3, 7]: 0.8108
- Cumulative Occurrences of Events [3, 8]: 6
- Occurrences of Events [3, 8]: 6
- Survival [3, 8]: 1.0000
- Cumulative Occurrences of Events [3, 9]: 10
- Occurrences of Events [3, 9]: 4
- Survival [3, 9]: 0.9564
- Cumulative Occurrences of Events [3, 10]: 15
- Occurrences of Events [3, 10]: 5
- Survival [3, 10]: 0.9258
- Cumulative Occurrences of Events [3, 11]: 20
- Survival [3, 11]: 0.8848
- Cumulative Occurrences of Events [3, 12]: 23
- Occurrences of Events [3, 12]: 3
- Survival [3, 12]: 0.8403
- Cumulative Occurrences of Events [3, 13]: 19
- Occurrences of Events [3, 13]: 0
- Survival [3, 13]: 0.8475
- Cumulative Occurrences of Events [3, 14]: 4
- Occurrences of Events [3, 14]: 4
- Survival [3, 14]: 1.0000
- Cumulative Occurrences of Events [3, 15]: 8
- Occurrences of Events [3, 15]: 4
- Survival [3, 15]: 0.9711
- Cumulative Occurrences of Events [3, 16]: 12
- Occurrences of Events [3, 16]: 4
- Survival [3, 16]: 0.9411
- Cumulative Occurrences of Events [3, 17]: 17
- Occurrences of Events [3, 17]: 5
- Survival [3, 17]: 0.9094
- Cumulative Occurrences of Events [3, 18]: 19
- Occurrences of Events [3, 18]: 2
- Survival [3, 18]: 0.8665
- Cummulative number of events [3, 19]: 4
- Number of events [3, 19]: 4
- Probability of no HE-related hospitalization [3, 19]: 1.0000
- Cummulative number of events [3, 20]: 8
- Number of events [3, 20]: 4
- Cummulative number of events [3, 21]: 12
- Number of events [3, 21]: 4
- Cummulative number of events [3, 22]: 17
- Number of events [3, 22]: 5
- Probability of no HE-related hospitalization [3, 22]: 0.9094
- Cummulative number of events [3, 23]: 19
- Number of events [3, 23]: 2
- Cummulative number of events [3, 24]: 19
- Number of events [3, 24]: 0
- subjects with HE-related hospitalizations (of 140) ([3]; first study, rifaximin group): 19
- reduction in risk of hospitalization due to HE (HE-related) compared with placebo ([3]; first study, 6-month treatment period): 50%
- time to first HE related hospitalization vs placebo (FIG. 3, Kaplan Meier) ([3]; in vivo): increased time to hospitalization
- subjects experiencing at least 1 TEAE judged to be severe [4]: 40.2%
- subjects with treatment-emergent SAEs [4]: 47.4%
- subjects with HE counted for the safety analyses ([4]; 57 subjects): 21.4%
- incidence of TEAEs considered related to study drug ([4]; continuing rifaximin group): 7.1%
- TEAE abdominal pain, subjects ([4]; interim analysis): 10.5%
- TEAE ascites, subjects ([4]; interim analysis): 10.5%
- TEAE nausea, subjects ([4]; interim analysis): 12.8%
- TEAE peripheral edema, subjects ([4]; interim analysis): 15.8%
- TEAE urinary tract infection, subjects ([4]; interim analysis): 12.8%
- subjects with TEAEs ([4]; interim analysis, 230 subjects): 86.5%
- incidence of TEAEs considered related to study drug ([4]; new rifaximin group): 7.7%
- reduction in risk of HE-caused hospitalization compared with placebo ([5]; 6-month treatment period): 56%
- HE-caused hospitalization rate ([5]; rifaximin group): 0.30 events/PEY
- subjects with HE-caused hospitalizations (of 140) ([5]; rifaximin group): 15
- TEAE ascites, subjects [6]: 11.4%
- TEAE diarrhea, subjects [6]: 10.7%
- TEAE dizziness, subjects [6]: 12.9%
- TEAE fatigue, subjects [6]: 12.1%
- TEAE headache, subjects [6]: 10%
- TEAE nausea, subjects [6]: 14.3%
- TEAE peripheral edema, subjects [6]: 15%
